Reference: article PMC13308190, “Endothelial progenitor cell susceptibility to DNA damaging and DDR-modulating compounds determines endothelial differentiation accuracy” (Stem Cell Research & Therapy, 2026)

Tests used:
Format in all cases: cell-based, mouse
mESC [1] = experiment: RT-qPCR mRNA expression; conditions: for Cdkn1a mRNA / Cdkn2a mRNA / Glb1 mRNA / Il6 mRNA / Il8 mRNA / Tp53 mRNA: Fig 7A; for Atp7a mRNA / Atp7b mRNA / Ctr2 mRNA / Mdr1 mRNA / Mrp1 mRNA / Oct2 mRNA: Fig 2D
Protocol: (§1) Total RNA was purified using the RNeasy Mini Kit (Qiagen, Hilden, Germany). Reverse transcriptase (RT) reaction was performed with the HighCapacity cDNA Reverse Transcription Kit (Applied Biosystems, Darmstadt, Germany) using 900–2000 ng of RNA. Quantitative RT-qPCR analysis was performed using following conditions: (1) 95 °C–10 min; (2) 45 amplification cycles with 95 °C–15 s, 55 °C–15 s, and 72 °C–17 s; (3) 95 °C–1 min, 55 °C–1 min, 65 °C–5 s. If not stated otherwise, analyses were performed in technical triplicates using pooled samples from two independent experiments (each performed with biological duplicates) by use of a CFX96 cycler (BioRad) and the SensiMix SYBR Kit (Bioline, London, UK). The primers used for mRNA expression analyses are listed in Supplementary Table 1. To ensure the specificity of the amplification product, melting curves were recorded at the end of the run. mRNA expression levels were normalized to β-Actin and Gapdh. Relative mRNA expression in mESC or corresponding untreated controls was set to 1.0. Only changes in gene expression of ≤ 0.5- and ≥ 2-fold were considered as biologically relevant. Fold-changes in gene expression are summarized in Supplementary Table 2.

[2] = test system: EC d6 (endothelial-like cells); experiment: RT-qPCR mRNA expression; conditions: for Cdkn1a mRNA / Cdkn2a mRNA / Glb1 mRNA / Il6 mRNA / Il8 mRNA / Tp53 mRNA: Fig 7C; for Atp7a mRNA / Atp7b mRNA / Ctr2 mRNA / Mdr1 mRNA / Mrp1 mRNA / Oct2 mRNA: Fig 2D
Protocol: as §1, with “relevant.” for “relevant. Fold-changes in gene expression are summarized in Supplementary Table 2.”

EC d4 [3] = experiment: Nuclear γH2AX / 53BP1 foci (DSB); conditions: EC d4 48 h, equitoxic concentrations
Protocol: (§2) DNA double-strand breaks were monitored by immunocytochemical detection of nuclear γH2AX and 53BP1 foci. Cells were fixed with 3.7% formaldehyde/PBS (15 min, RT) and permeabilized (0.3% TritonX/PBS; 15 min, RT). […] Cell suspension was mixed with 0.5% low melting point agarose and applied onto glass slides coated with 1.5% agarose. After lysis in alkaline buffer (pH 10, 1 h, 4 °C, protected from light) and DNA denaturation in precooled electrophoresis buffer (pH > 13, 25 min, 4 °C, protected from light) electrophoresis was performed (300 mA, 25 V, 4 °C, 25 min).

mESC [4] = experiment: Nuclear γH2AX / 53BP1 foci (DSB); conditions: mESC 24 h, equitoxic concentrations
Protocol: as §2

EC d4 [5] = experiment: EdU incorporation (S-phase activity); conditions: EC d4 48 h
Protocol: S-phase activity of cells was monitored by measuring EdU incorporation using the EdU-Click 488 assay according to the manufacturer’s protocol. Briefly, cells were pulse-treated with 5-ethynyl-2′-deoxyuridine (EdU) for 3 h. Alexa Fluor 488-conjugated reaction cocktail was added (30 min, RT) and nuclei were counterstained with DAPI. The percentage of EdU-positive area/DAPI-positive area was calculated by fluorescence microscopy (Olympus BX43, 20x objective).

EC d6 = experiment: ZO1 tight junction immunofluorescence; conditions: analysed 2 days later
EC d4 [6] = experiment: Dil-acLDL uptake; conditions: EC d4 treated 48 h
Protocol: To monitor prototypical functions of endothelial cells, the uptake of fluorescent 1,1-dioctadecyl-3,3,3,3-tetra-methylindocarbocyanine-labeled acetylated LDL (Dil-acLDL) was examined. Briefly, cells were incubated with Dil-acLDL (10 µg/ml, 4 h, 37 °C). After fixation (3.7% cold formaldehyde/PBS (15 min, RT) nuclei were counterstained with DAPI. The uptake of DiI-acLDL was analyzed by fluorescence microscopy (Olympus BX43, 20x objective). Additionally, the response of differentiated EC to inflammatory cytokines was measured. After treatment with a pro-inflammatory cytokine mixture (TNFα/IL-1β, 10 ng/mL) for 1 h, mRNA expression of activated EC markers E-selectin, Icam-1, Vcam-1, Ccl2, eNos, iNos was analyzed (RT-qPCR).

[7] = mESC + 0.05 µM 24 h + 24 h post incubation
[8] = mESC + 0.1 µM 24 h + 24 h post incubation
[9] = EC d6 + 0.05 µM 24 h + 24 h post incubation
[10] = EC d6 + 0.1 µM 24 h + 24 h post incubation

SMILES: COc1cccc2c1C(=O)c1c(O)c3c(c(O)c1C2=O)C[C@@](O)(C(=O)CO)C[C@@H]3O[C@H]1C[C@H](N)[C@H](O)[C@H](C)O1 [Dox, doxorubicin]
- Cdkn1a mRNA (mESC [1]; [7]): 2.20 Fold of untreated control
- Cdkn2a mRNA (mESC [1]; [7]): 2.02 Fold of untreated control
- Glb1 mRNA (mESC [1]; [7]): 1.22 Fold of untreated control
- Il6 mRNA (mESC [1]; [7]): 2.74 Fold of untreated control
- Il8 mRNA (mESC [1]; [7]): 1.29 Fold of untreated control
- Tp53 mRNA (mESC [1]; [7]): 0.86 Fold of untreated control
- Atp7a mRNA (mESC [1]; mESC + 0.05 µM 24 h): 2.50 Fold of control
- Atp7b mRNA (mESC [1]; mESC + 0.05 µM 24 h): 1.82 Fold of control
- Ctr2 mRNA (mESC [1]; mESC + 0.05 µM 24 h): 2.95 Fold of control
- Mdr1 mRNA (mESC [1]; mESC + 0.05 µM 24 h): 4.03 Fold of control
- Mrp1 mRNA (mESC [1]; mESC + 0.05 µM 24 h): 2.38 Fold of control
- Oct2 mRNA (mESC [1]; mESC + 0.05 µM 24 h): 5.33 Fold of control
- Gpx1 mRNA (mESC [1]; mESC + 0.05 µM 24 h, Fig 6C): 1.54 Fold of untreated control
- Gpx4 mRNA (mESC [1]; mESC + 0.05 µM 24 h, Fig 6C): 0.62 Fold of untreated control
- Gstm1 mRNA (mESC [1]; mESC + 0.05 µM 24 h, Fig 6C): 2.08 Fold of untreated control
- Hmox1 mRNA (mESC [1]; mESC + 0.05 µM 24 h, Fig 6C): 1.14 Fold of untreated control
- Pgc1a mRNA (mESC [1]; mESC + 0.05 µM 24 h, Fig 6C): 1.78 Fold of untreated control
- Sod1 mRNA (mESC [1]; mESC + 0.05 µM 24 h, Fig 6C): 1.30 Fold of untreated control
- Sod2 mRNA (mESC [1]; mESC + 0.05 µM 24 h, Fig 6C): 1.10 Fold of untreated control
- Gpx4 mRNA (mESC [1]; mESC + 0.05 µM 24 h, Fig 6F): 1.03 Fold of untreated control
- Slc7a11 mRNA (mESC [1]; mESC + 0.05 µM 24 h, Fig 6F): 0.99 Fold of untreated control
- Cdkn1a mRNA (mESC [1]; [8]): 2.09 Fold of untreated control
- Cdkn2a mRNA (mESC [1]; [8]): 2.49 Fold of untreated control
- Glb1 mRNA (mESC [1]; [8]): 1.35 Fold of untreated control
- Il6 mRNA (mESC [1]; [8]): 2.84 Fold of untreated control
- Il8 mRNA (mESC [1]; [8]): 1.07 Fold of untreated control
- Tp53 mRNA (mESC [1]; [8]): 0.87 Fold of untreated control
- Atp7a mRNA (mESC [1]; mESC + 0.1 µM 24 h): 3.09 Fold of control
- Atp7b mRNA (mESC [1]; mESC + 0.1 µM 24 h): 2.42 Fold of control
- Ctr2 mRNA (mESC [1]; mESC + 0.1 µM 24 h): 4.05 Fold of control
- Mdr1 mRNA (mESC [1]; mESC + 0.1 µM 24 h): 6.26 Fold of control
- Mrp1 mRNA (mESC [1]; mESC + 0.1 µM 24 h): 2.51 Fold of control
- Oct2 mRNA (mESC [1]; mESC + 0.1 µM 24 h): 0.75 Fold of control
- Brca1 mRNA (mESC [1]; mESC + 0.1 µM 24 h, Fig 5C): 1.93 Fold of mESC
- Chk1 mRNA (mESC [1]; mESC + 0.1 µM 24 h, Fig 5C): 0.68 Fold of mESC
- Rad51 mRNA (mESC [1]; mESC + 0.1 µM 24 h, Fig 5C): 1.36 Fold of mESC
- Pgc1a mRNA (mESC [1]; mESC + 0.1 µM 24 h, Fig 6D): 10.69 Fold of untreated control
- Gpx4 mRNA (mESC [1]; mESC + 0.1 µM 24 h, Fig 6F): 1.05 Fold of untreated control
- Slc7a11 mRNA (mESC [1]; mESC + 0.1 µM 24 h, Fig 6F): 1.20 Fold of untreated control
- Cdkn1a mRNA [2, 9]: 4.38 Fold of untreated control
- Cdkn2a mRNA [2, 9]: 1.77 Fold of untreated control
- Glb1 mRNA [2, 9]: 1.49 Fold of untreated control
- Il6 mRNA [2, 9]: 1.91 Fold of untreated control
- Il8 mRNA [2, 9]: 1.31 Fold of untreated control
- Tp53 mRNA [2, 9]: 1.15 Fold of untreated control
- Atp7a mRNA ([2]; EC d6 + 0.05 µM 24 h): 1.47 Fold of control
- Atp7b mRNA ([2]; EC d6 + 0.05 µM 24 h): 0.99 Fold of control
- Ctr2 mRNA ([2]; EC d6 + 0.05 µM 24 h): 1.13 Fold of control
- Mdr1 mRNA ([2]; EC d6 + 0.05 µM 24 h): 4.89 Fold of control
- Mrp1 mRNA ([2]; EC d6 + 0.05 µM 24 h): 1.23 Fold of control
- Oct2 mRNA ([2]; EC d6 + 0.05 µM 24 h): 0.25 Fold of control
- Gpx1 mRNA ([2]; EC d6 + 0.05 µM 24 h, Fig 6C): 1.10 Fold of untreated control
- Gpx4 mRNA ([2]; EC d6 + 0.05 µM 24 h, Fig 6C): 1.68 Fold of untreated control
- Gstm1 mRNA ([2]; EC d6 + 0.05 µM 24 h, Fig 6C): 2.52 Fold of untreated control
- Hmox1 mRNA ([2]; EC d6 + 0.05 µM 24 h, Fig 6C): 2.63 Fold of untreated control
- Pgc1a mRNA ([2]; EC d6 + 0.05 µM 24 h, Fig 6C): 10.96 Fold of untreated control
- Sod1 mRNA ([2]; EC d6 + 0.05 µM 24 h, Fig 6C): 2.60 Fold of untreated control
- Sod2 mRNA ([2]; EC d6 + 0.05 µM 24 h, Fig 6C): 1.17 Fold of untreated control
- Slc7a11 mRNA ([2]; EC d6 + 0.05 µM 24 h, Fig 6F): 0.82 Fold of untreated control
- Cdkn1a mRNA [2, 10]: 5.67 Fold of untreated control
- Cdkn2a mRNA [2, 10]: 2.66 Fold of untreated control
- Glb1 mRNA [2, 10]: 1.97 Fold of untreated control
- Il6 mRNA [2, 10]: 3.23 Fold of untreated control
- Il8 mRNA [2, 10]: 1.15 Fold of untreated control
- Tp53 mRNA [2, 10]: 1.09 Fold of untreated control
- Atp7a mRNA ([2]; EC d6 + 0.1 µM 24 h): 1.77 Fold of control
- Atp7b mRNA ([2]; EC d6 + 0.1 µM 24 h): 1.11 Fold of control
- Ctr2 mRNA ([2]; EC d6 + 0.1 µM 24 h): 1.27 Fold of control
- Mdr1 mRNA ([2]; EC d6 + 0.1 µM 24 h): 11.55 Fold of control
- Mrp1 mRNA ([2]; EC d6 + 0.1 µM 24 h): 1.40 Fold of control
- Oct2 mRNA ([2]; EC d6 + 0.1 µM 24 h): 1.39 Fold of control
- Brca1 mRNA ([2]; EC d6 + 0.1 µM 24 h, Fig 5C): 0.45 Fold of mESC
- Chk1 mRNA ([2]; EC d6 + 0.1 µM 24 h, Fig 5C): 0.43 Fold of mESC
- Rad51 mRNA ([2]; EC d6 + 0.1 µM 24 h, Fig 5C): 0.48 Fold of mESC
- Pgc1a mRNA ([2]; EC d6 + 0.1 µM 24 h, Fig 6D): 21.56 Fold of untreated control
- Gpx4 mRNA ([2]; EC d6 + 0.1 µM 24 h, Fig 6F): 0.99 Fold of untreated control
- Slc7a11 mRNA ([2]; EC d6 + 0.1 µM 24 h, Fig 6F): 1.09 Fold of untreated control
- Cldn5 mRNA ([2]; EC d6 + 0.1 µM 24 h, Fig 8C): 2.50 Fold of EC d4 or d6
- Ocln mRNA ([2]; EC d6 + 0.1 µM 24 h, Fig 8C): 1.79 Fold of EC d4 or d6
- Tjp1 mRNA ([2]; EC d6 + 0.1 µM 24 h, Fig 8C): 1.21 Fold of EC d4 or d6
- DSB numbers (γH2AX / 53BP1 foci) (EC d4 [3]): clear increase
- nuclear γH2AX foci (mESC [4]): significant increase
- S-phase activity (EdU-positive cells) (EC d4 [5]): decrease in S-phase activity
- ZO1 assembly in treated EC d6 (EC d6): clearly visible gaps
- LDL uptake in EC d6 progeny of treated EC d4 (EC d4 [6]): noticably reduced LDL uptake
